What all share (type): biochemical
Test [1] has as its target T1, BTK-WT (Homo sapiens, UniProt Q06187).
T1 construct: purified from insect cells as a full-length construct containing an N-terminal 6X-His tag; His6 (N); made in house; host or cells: insect cells (baculovirus Sf21 in Method B)
Description: Btk in vitro inhibitory activity (one of Method A TR-FRET, Method B electrophoretic mobility shift, Method C radiometric filter binding). The conditions noted are these: read-out: IC50 BTK-WT.

The target in test [2] is T2, TEC (Homo sapiens, UniProt P42680).
T2 sequence (P42680 1-631): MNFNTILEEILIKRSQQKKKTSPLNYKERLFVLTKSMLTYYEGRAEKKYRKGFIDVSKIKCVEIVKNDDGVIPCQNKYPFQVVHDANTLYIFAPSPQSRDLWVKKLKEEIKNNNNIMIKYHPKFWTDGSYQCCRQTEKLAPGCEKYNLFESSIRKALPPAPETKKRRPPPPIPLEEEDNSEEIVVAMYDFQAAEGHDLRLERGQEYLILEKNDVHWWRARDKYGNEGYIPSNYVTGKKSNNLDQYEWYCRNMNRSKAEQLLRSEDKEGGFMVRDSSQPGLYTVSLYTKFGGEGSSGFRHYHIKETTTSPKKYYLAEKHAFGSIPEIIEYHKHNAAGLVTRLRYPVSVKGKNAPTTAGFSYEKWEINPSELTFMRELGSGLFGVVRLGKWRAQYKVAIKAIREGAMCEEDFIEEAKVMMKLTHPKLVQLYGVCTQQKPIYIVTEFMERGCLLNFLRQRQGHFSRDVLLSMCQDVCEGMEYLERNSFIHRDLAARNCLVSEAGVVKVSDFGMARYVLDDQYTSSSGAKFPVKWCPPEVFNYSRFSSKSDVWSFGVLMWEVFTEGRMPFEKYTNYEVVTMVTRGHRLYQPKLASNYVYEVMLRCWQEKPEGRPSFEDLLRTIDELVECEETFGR
Description: Inhibition of a panel of kinases, in vitro HotSpot kinase assay: TEC. The procedure:
(§1) The degree of inhibition of a panel of kinases is determined using the in vitro HotSpot kinase assay (purified enzymes, ^33P-ATP, an appropriate substrate and 1 μM ATP).

The target in test [3] is EGFR (Homo sapiens, UniProt P00533). Description: Inhibition of a panel of kinases, in vitro HotSpot kinase assay: EGFR. The procedure: as §1
In test [4] the target is SRC (Homo sapiens, UniProt P12931). Description: Inhibition of a panel of kinases, in vitro HotSpot kinase assay: SRC. The procedure: as §1
Setting [5] is: Table 13, A compounds, 1 μM ATP.

Where two headings read alike, the source gives them in different places. Bounds are passed on as bounds.

Chain of EGFR (P00533 25-1210): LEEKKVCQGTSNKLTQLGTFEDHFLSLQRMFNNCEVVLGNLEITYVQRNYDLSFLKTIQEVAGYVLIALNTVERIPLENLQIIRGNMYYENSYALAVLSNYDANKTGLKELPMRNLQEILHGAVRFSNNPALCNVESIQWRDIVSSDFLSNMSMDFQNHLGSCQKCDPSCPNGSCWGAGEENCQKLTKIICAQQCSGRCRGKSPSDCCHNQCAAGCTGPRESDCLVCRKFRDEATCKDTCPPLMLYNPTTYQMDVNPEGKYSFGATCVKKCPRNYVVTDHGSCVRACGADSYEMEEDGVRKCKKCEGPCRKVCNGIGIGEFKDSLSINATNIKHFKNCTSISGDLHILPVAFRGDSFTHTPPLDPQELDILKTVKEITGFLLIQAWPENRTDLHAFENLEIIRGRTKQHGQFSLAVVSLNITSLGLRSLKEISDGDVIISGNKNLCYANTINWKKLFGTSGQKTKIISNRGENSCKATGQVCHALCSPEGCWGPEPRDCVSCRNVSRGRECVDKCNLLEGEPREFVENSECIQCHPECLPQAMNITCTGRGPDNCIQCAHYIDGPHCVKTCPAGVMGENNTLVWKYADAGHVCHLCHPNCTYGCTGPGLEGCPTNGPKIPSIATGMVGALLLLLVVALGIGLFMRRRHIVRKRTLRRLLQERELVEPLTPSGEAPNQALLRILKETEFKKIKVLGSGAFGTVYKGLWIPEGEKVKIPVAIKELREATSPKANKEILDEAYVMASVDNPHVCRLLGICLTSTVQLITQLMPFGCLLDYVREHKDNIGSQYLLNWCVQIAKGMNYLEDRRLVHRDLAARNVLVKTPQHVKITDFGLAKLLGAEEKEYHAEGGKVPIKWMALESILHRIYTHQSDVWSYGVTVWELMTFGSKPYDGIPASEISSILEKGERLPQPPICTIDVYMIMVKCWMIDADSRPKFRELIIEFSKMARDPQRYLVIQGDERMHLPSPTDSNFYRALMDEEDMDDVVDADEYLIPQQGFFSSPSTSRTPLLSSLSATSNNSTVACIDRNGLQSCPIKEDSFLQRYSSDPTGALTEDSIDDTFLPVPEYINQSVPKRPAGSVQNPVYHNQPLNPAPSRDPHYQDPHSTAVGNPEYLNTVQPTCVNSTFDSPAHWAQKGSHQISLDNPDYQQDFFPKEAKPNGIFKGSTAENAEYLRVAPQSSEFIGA
T1 sequence (Q06187 whole entry): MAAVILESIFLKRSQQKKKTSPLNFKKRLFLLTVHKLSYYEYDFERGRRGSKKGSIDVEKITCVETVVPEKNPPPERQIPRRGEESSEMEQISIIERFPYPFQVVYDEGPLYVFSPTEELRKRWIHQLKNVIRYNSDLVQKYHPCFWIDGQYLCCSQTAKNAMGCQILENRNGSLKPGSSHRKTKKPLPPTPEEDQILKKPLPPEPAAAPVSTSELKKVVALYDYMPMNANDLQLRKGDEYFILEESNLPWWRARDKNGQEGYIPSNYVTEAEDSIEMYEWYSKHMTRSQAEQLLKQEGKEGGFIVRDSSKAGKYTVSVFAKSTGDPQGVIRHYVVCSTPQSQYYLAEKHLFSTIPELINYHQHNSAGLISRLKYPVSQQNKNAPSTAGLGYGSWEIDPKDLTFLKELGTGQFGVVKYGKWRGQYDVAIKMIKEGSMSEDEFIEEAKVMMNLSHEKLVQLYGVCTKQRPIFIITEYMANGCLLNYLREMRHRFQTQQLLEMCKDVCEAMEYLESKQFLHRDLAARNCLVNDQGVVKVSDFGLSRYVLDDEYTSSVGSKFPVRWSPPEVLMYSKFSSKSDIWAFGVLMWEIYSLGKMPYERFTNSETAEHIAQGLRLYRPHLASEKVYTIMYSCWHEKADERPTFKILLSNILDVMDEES
Chain of SRC (P12931 whole entry): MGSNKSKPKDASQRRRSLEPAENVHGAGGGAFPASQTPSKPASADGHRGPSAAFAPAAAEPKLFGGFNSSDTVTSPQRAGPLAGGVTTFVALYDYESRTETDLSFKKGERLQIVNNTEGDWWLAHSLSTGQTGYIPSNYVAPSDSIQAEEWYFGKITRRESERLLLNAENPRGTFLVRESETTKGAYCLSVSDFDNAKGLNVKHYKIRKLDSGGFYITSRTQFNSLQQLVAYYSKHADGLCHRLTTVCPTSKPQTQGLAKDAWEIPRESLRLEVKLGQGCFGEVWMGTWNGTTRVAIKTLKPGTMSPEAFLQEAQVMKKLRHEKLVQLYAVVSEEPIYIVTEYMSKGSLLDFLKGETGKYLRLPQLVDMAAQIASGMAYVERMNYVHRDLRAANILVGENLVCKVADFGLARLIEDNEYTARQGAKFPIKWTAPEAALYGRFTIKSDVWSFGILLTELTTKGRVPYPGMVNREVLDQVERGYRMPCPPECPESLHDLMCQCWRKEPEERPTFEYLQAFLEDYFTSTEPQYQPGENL

In the case of `C[C@@H]1[C@H](NC(=O)c2ccc(C3CC3)cn2)CCCN1c1cnc(C(N)=O)c(Nc2ccc(N3CCN(C)CC3)cc2)n1` [Example A-179, 5-[(2R,3R)-3-(5-cyclopropyl-pyridine-2-amido)-2-methylpiperidin-1-yl]-3-{[4-(4-methylpiperazin-1-yl)phenyl]amino}pyrazine-2-carboxamide], the IC50 was at most 10 nM in test [1] (Table 13, A compounds); 10 to 100 nM in test [2] (setting [5]); 100 to 1000 nM in test [3] (setting [5]); 10 to 100 nM in test [4] (setting [5]).

As for `C[C@@H]1[C@H](NC(=O)c2ccc(C3CC3)cc2F)CCCN1c1cnc(C(N)=O)c(Nc2ccc(CN3CCN(C)CC3)cc2)n1` [Example A-106, 5-[(2R,3R)-3-(4-cyclopropyl-2-fluorobenzamido)-2-methylpiperidin-1-yl]-3-({4-[(4-methylpiperazin-1-yl)meth-yl]phenyl}amino)pyrazine-2-carboxamide], the IC50 in test [1] (Table 13, A compounds) was at most 10 nM; in test [2] (setting [5]) it was 10 to 100 nM; in test [3] (setting [5]), 100 to 1000 nM; in test [4] (setting [5]) it was 100 to 1000 nM.

With `CN1CCN(c2ccc(Nc3nc(N4CCC[C@@H](n5ccc6cc(C7CC7)cc(F)c6c5=O)C4)cnc3C(N)=O)cc2)CC1` [Example A-133, 5-[(3R)-3-(6-cyclo-propyl-8-fluoro-1-oxo-1,2-dihydroisoquinolin-2-yl)piperidin-1-yl]-3-{[4-(4-methylpiperazin-1-yl)phenyl]amino}pyrazine-2-carboxamide], the IC50 is at most 10 nM in test [1] (Table 13, A compounds); 10 to 100 nM in test [2] (setting [5]); 100 to 1000 nM in test [3] (setting [5]); 10 to 100 nM in test [4] (setting [5]).

In the case of `C[C@@H]1[C@H](NC(=O)c2ccc(C3CC3)cc2)CCCN1c1cnc(C(N)=O)c(Nc2cnn(C)c2)n1` [Example A-169, 5-[(2R,3R)-3-(4-cyclopropylbenzamido)-2-methylpiperidin-1-yl]-3-[(1-methyl-1H-pyrazol-4-yl)amino]pyrazine-2-carboxamide], the IC50 in test [1] (Table 13, A compounds) was at most 10 nM; in test [2] (setting [5]), 10 to 100 nM; in test [3] (setting [5]), 1000 to 10000 nM; in test [4] (setting [5]) it was 100 to 1000 nM.

As for `C=CC(=O)N1CC[C@@H](N(C)c2nnc(C(N)=O)c(Nc3ccc(C(C)C)cc3)n2)C1` [Example E-26, (R)-3-((1-acryloylpyrrolidin-3-yl)(methyl)amino)-5-(4-isopropylphenylamino)-1,2,4-triazine-6-carboxamide], the IC50 in test [1] (E compounds, Table 17) is at most 10 nM; in test [2] (E compounds, Table 17), at most 10 nM; in test [3] (E compounds, Table 17) it was at most 10 nM; in test [4] (E compounds, Table 17), 10 to 100 nM.

Regarding `C[C@@H]1[C@H](NC(=O)c2cc(C(C)(C)C)nn2C)CCCN1c1cnc(C(N)=O)c(Nc2cnn(C)c2)n1` [Example E-146, 5-((2R,3R)-3-(3-(tert-butyl)-1-methyl-1H-pyrazole-5-carboxamido)-2-methylpiperidin-1-yl)-3-((1-methyl-1H-pyrazol-4-yl)amino)pyrazine-2-carboxamide], the IC50 in test [1] (E compounds, Table 17) was at most 10 nM; in test [2] (E compounds, Table 17) it was at most 10 nM; in test [3] (E compounds, Table 17) it was 1000 to 10000 nM; in test [4] (E compounds, Table 17) it was 10 to 100 nM.

With `C=CC(=O)N[C@@H]1CCCN(c2nnc(C(N)=O)c(Nc3ccc(C4(C)CCN(C5CC5)CC4)cc3)n2)[C@@H]1C` [Example E-2, 3-((2R,3R)-3-acrylamido-2-methylpiperidin-1-yl)-5-((4-(1-cyclopropyl-4-methylpiperidin-4-yl)phenyl)amino)-1,2,4-triazine-6-carboxamide], the half-inhibitory concentration (IC50) in test [1] (E compounds, Table 17) was at most 10 nM; in test [2] (E compounds, Table 17) it was at most 10 nM.

For the compound `C[C@@H]1[C@H](NC(=O)c2ccc(C3CC3)cc2F)CCCN1c1cnc(C(N)=O)c(Nc2ccc(C(=O)N3CCN(C)CC3)cc2)n1` [Example A-122, 5-[(2R,3R)-3-(4-cyclopropyl-2-fluorobenzamido)-2-methylpiperidin-1-yl]-3-{[4-(4-methylpiperazine-1-carbonyl)phenyl]amino}pyr-azine-2-carboxamide], the concentration for half-maximal inhibition (IC50) in test [1] (Table 13, A compounds) is at most 10 nM; in test [2] (setting [5]), 10 to 100 nM; in test [3] (setting [5]), 100 to 1000 nM; in test [4] (setting [5]), 100 to 1000 nM.

On to `Cn1cc(Nc2nc(N3CCC[C@@H](n4ccc5cc(C6CC6)ccc5c4=O)C3)cnc2C(N)=O)cn1` [Example A-167, 5-[(3R)-3-(6-cyclopropyl-1-oxo-1,2-dihydroisoquinolin-2-yl)piperidin-1-yl]-3-[(1-methyl-1H-pyrazol-4-yl)amino]pyrazine-2-carboxamide], for which the IC50 is at most 10 nM in test [1] (Table 13, A compounds); 10 to 100 nM in test [2] (setting [5]); above 10000 nM in test [3] (setting [5]); 1000 to 10000 nM in test [4] (setting [5]).

Turning to `C=CC(=O)N1CC[C@@H](N(C)c2cnc(C(N)=O)c(Nc3ccc(C4CCN(C5CCCC5)CC4)cc3)n2)C1` [Example E-109, (R)-5-((1-acryloylpyrrolidin-3-yl)(methyl)amino)-3-(4-(1-cyclopentylpiperidin-4-yl)phenylamino)pyrazine-2-carboxamide], the IC50 in test [1] (E compounds, Table 17) was at most 10 nM; in test [2] (E compounds, Table 17) it was at most 10 nM; in test [3] (E compounds, Table 17), 10 to 100 nM; in test [4] (E compounds, Table 17), 10 to 100 nM.

As for `C[C@@H]1[C@H](NC(=O)c2ccc(C3CC3)nc2)CCCN1c1cnc(C(N)=O)c(Nc2cnn(C)c2)n1` [Example A-190, 5-((2R,3R)-3-(6-cyclopropylnicotinamido)-2-methylpiperidin-1-yl)-3-(1-methyl-1H-pyrazol-4-ylamino)pyr-azine-2-carboxamide], the 50% inhibitory concentration (IC50) in test [1] (Table 13, A compounds) is at most 10 nM; in test [2] (setting [5]) it was 10 to 100 nM; in test [3] (setting [5]), 1000 to 10000 nM; in test [4] (setting [5]) it was 10 to 100 nM.

As for `Cn1cc(Nc2nc(N3CCC4CCN(C(=O)c5ccc(C6CC6)cc5)C4C3)cnc2C(N)=O)cn1` (stereo not drawn) [Example E-141, 5-(1-(4-cyclopropylbenzoyl)octahydro-6H-pyrrolo[2,3-c]pyridin-6-yl)-3-((1-methyl-3H-pyrazol-4-yl)amino)pyrazine-2-carboxamide], the 50% inhibitory concentration (IC50) is 100 to 1000 nM in test [1] (E compounds, Table 17); 100 to 1000 nM in test [2] (E compounds, Table 17); 100 to 1000 nM in test [3] (E compounds, Table 17); 100 to 1000 nM in test [4] (E compounds, Table 17).

Take `C[C@@H]1[C@H](NC(=O)c2ccc(C3CC3)cc2)CCCN1c1cnc(C(N)=O)c(Nc2ccc(N3CCN(C)CC3)cc2)n1` [Example A-170, 5-[(2R,3R)-3-(4-cyclopropylbenzamido)-2-methylpiperidin-1-yl]-3-{[4-(4-methylpiperazin-1-yl)phenyl]amino}pyrazine-2-carboxamide]: the IC50 is at most 10 nM in test [1] (Table 13, A compounds); 10 to 100 nM in test [2] (setting [5]); 100 to 1000 nM in test [3] (setting [5]); 10 to 100 nM in test [4] (setting [5]).

For `C=CC(=O)N1CCC[C@@H](Nc2nnc(C(N)=O)c(Nc3ccc(C(C)(C)C)cc3)n2)C1` [Example E-24, (R)-3-(1-acryloylpiperidin-3-ylamino)-5-(4-tert-butylphenylamino)-1,2,4-triazine-6-carboxamide], the IC50 is at most 10 nM in test [1] (E compounds, Table 17); at most 10 nM in test [2] (E compounds, Table 17); at most 10 nM in test [3] (E compounds, Table 17).

Turning to `C=CC(=O)N1CCC[C@@H](N(C)c2cnc(C(N)=O)c(Nc3ccc(C(C)C)cc3)n2)C1` [Example E-102, (R)-5-((1-acryloylpiperidin-3-yl)(methyl)amino)-3-(4-isopropylphenylamino) pyrazine-2-carboxamide], the IC50 in test [1] (E compounds, Table 17) is at most 10 nM; in test [2] (E compounds, Table 17), at most 10 nM; in test [4] (E compounds, Table 17) it was 100 to 1000 nM.

Consider `C=CC(=O)N[C@@H]1CCCN(c2nnc(C(N)=O)c(Nc3ccc(Cl)cc3)n2)[C@@H]1C` [Example E-5, 3-((2R,3R)-3-acrylamido-2-methylpiperidin-1-yl)-5-((4-chlorophenyl)amino)-1,2,4-triazine-6-carboxamide], for which the half-inhibitory concentration (IC50) was at most 10 nM in test [1] (E compounds, Table 17) and at most 10 nM in test [2] (E compounds, Table 17).

Take `CC(C)c1ccc(Nc2nc(N3CCC[C@@H](N4CCC[C@@H](Nc5cc(Cl)cc(C(F)(F)F)c5)C4=O)C3)nnc2C(N)=O)cc1` [Example E-128, 3-((3R,3′R)-3-((3-chloro-5-(trifluoromethyl)phenyl)amino)-2-oxo-[1,3′-bipiperidin]-1′-yl)-5-((4-isopropylphenyl)amino)-1,2,4-triazine-6-carboxamide]: the IC50 fell in the range of 100 to 1000 nM in test [1] (E compounds, Table 17); 1000 to 10000 nM in test [2] (E compounds, Table 17); 10 to 100 nM in test [4] (E compounds, Table 17).

With `C=CC(=O)N1CCC[C@@H](Nc2nnc(C(N)=O)c(Nc3ccc(Cl)cc3)n2)[C@H]1C` [Example E-7, 3-(((2R,3R)-1-acryloyl-2-methylpiperidin-3-yl)amino)-5-((4-chlorophenyl)amino)-1,2,4-triazine-6-carboxamide], the half-inhibitory concentration (IC50) in test [1] (E compounds, Table 17) is at most 10 nM; in test [2] (E compounds, Table 17) it was at most 10 nM.

For `C=CC(=O)N1CCC[C@@H](Nc2nnc(C(N)=O)c(Nc3ccc(C4(C)CCN(C5CC5)CC4)cc3)n2)[C@H]1C` [Example E-127, 3-(((2R,3R)-1-acryloyl-2-methylpiperidin-3-yl)amino)-5-((4-(1-cyclopropyl-4-methylpiperidin-4-yl)phenyl)amino)-1,2,4-triazine-6-carboxamide], the IC50 was at most 10 nM in test [1] (E compounds, Table 17); at most 10 nM in test [2] (E compounds, Table 17); at most 10 nM in test [4] (E compounds, Table 17).

As a reminder, the IC50 is the concentration that gives 50% inhibition.

Values taken from US20210070748A1, “INHIBITORS OF BRUTONS TYROSINE KINASE” (Pharmacyclics LLC, priority 2015, published 2021).
